One assay has as its target T1, IDO (SKOV-3 cells) (Homo sapiens, UniProt P14902).
T1 construct: This assay utilised cancer cells which expressed either TDO or IDO; host or cells: SKOV-3 ovary adenocarcinoma cells, IFNγ-induced
Briefly: IDO cell-based assay (SKOV-3, IFNγ-induced), kynurenine production. As to conditions: SKOV-3 ovary adenocarcinoma cells, IFNγ 500 ng/ml, 500 μM L-Trp, 48 h, kynurenine by absorbance at 490 nm. The method in brief: (§1)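 Kynurenine output was read at 490 nm after 5 min with 1% Ehrlich's reagent, using supernatants from 48 h, 37 °C cultures containing 500 μM L-Trp and test compound. TDO activity came from A172 cells. IDO activity came from SKOV-3 cells, whose expression was induced by adding 500 ng/ml IFNγ.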

Another assay has as its target T2, TDO (A172 cells) (Homo sapiens, UniProt P48775).
T2 construct: This assay utilised cancer cells which expressed either TDO or IDO; host or cells: A172 human glioblastoma cells
Put plainly: TDO cell-based assay (A172), kynurenine production. As to conditions: A172 human glioblastoma cells, 500 μM L-Trp, 48 h, kynurenine by absorbance at 490 nm. The essentials:
as §1

T2 sequence (P48775 whole entry): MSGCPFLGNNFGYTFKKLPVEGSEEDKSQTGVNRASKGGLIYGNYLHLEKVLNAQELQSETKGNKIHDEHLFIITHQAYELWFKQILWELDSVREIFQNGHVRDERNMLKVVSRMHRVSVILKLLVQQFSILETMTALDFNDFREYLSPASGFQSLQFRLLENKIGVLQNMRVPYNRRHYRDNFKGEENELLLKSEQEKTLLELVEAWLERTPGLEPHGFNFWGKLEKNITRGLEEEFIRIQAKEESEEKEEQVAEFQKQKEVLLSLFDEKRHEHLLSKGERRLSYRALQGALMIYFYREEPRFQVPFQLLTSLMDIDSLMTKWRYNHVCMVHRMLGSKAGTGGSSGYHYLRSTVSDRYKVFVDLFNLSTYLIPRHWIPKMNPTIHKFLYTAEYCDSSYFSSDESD
T1 sequence (P14902 whole entry): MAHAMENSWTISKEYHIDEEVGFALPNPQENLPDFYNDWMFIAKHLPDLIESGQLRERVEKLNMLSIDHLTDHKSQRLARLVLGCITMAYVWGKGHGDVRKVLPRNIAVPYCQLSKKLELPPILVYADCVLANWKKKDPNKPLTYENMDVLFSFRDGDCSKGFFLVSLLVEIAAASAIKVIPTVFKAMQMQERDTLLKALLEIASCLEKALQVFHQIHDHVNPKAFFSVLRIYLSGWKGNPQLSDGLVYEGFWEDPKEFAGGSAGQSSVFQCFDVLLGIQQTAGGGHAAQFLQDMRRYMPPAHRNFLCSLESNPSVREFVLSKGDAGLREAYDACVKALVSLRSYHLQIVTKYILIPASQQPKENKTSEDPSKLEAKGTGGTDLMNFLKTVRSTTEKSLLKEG

As for `CC1(NC(=O)c2cc3cc(Cl)ccc3[nH]2)CC1` [Compound 139], at IDO (SKOV-3 cells), the “IDO cellular assay (SKOV3) pIC50” value is given as “+ (+ = pIC50 4.50-<5.00)”. For the same compound, the “TDO cellular assay (A172) pIC50” value on TDO (A172 cells) was “− (− = pIC50 <4.50)”.
As for `O=C(NC1(c2nc(-c3ccccc3)no2)CC1)c1cc2cc(Cl)ccc2[nH]1` [Compound 140], the “IDO cellular assay (SKOV3) pIC50” value on IDO (SKOV-3 cells) is reported as “+++ (+++ = pIC50 ≥5.50)”. Also, the “TDO cellular assay (A172) pIC50” value on TDO (A172 cells) was “− (− = pIC50 <4.50)”.
Regarding `Cn1cc(C2(NC(=O)c3cc4cc(Cl)ccc4[nH]3)CC2)cn1` [Compound 141], the values for the IC50 at IDO (SKOV-3 cells) (read-out: IDO cellular assay (SKOV3) pIC50 (converted)) and at TDO (A172 cells) (read-out: TDO cellular assay (A172) pIC50 (converted)) were not above 3.16 µM and more than 31.6 µM, respectively.
In the case of `O=C(NC1(c2ccccc2)COC1)c1cc2cc(Cl)ccc2[nH]1` [Compound 142], the “IDO cellular assay (SKOV3) pIC50” value on IDO (SKOV-3 cells) is given as “+++ (+++ = pIC50 ≥5.50)”. The “TDO cellular assay (A172) pIC50” value on TDO (A172 cells) was “+ (+ = pIC50 4.50-<5.00)”.
For `O=C(NC1(c2ccn(-c3ccccc3)n2)CC1)c1cc2cc(Cl)ccc2[nH]1` [Compound 143] the same measures were “+++ (+++ = pIC50 ≥5.50)” and “+ (+ = pIC50 4.50-<5.00)”.
Consider `O=C(NC1(C2CCOCC2)CC1)c1cc2cc(Cl)ccc2[nH]1` [Compound 144], for which the “IDO cellular assay (SKOV3) pIC50” value at IDO (SKOV-3 cells) was “+++ (+++ = pIC50 ≥5.50)”. For the same compound, the “TDO cellular assay (A172) pIC50” value at TDO (A172 cells) is reported as “+ (+ = pIC50 4.50-<5.00)”.
For `Cn1cc(C2(NC(=O)c3cc4cc(C#N)ccc4[nH]3)CC2)cn1` [Compound 145] the same measures were “+++ (+++ = pIC50 ≥5.50)” and “− (− = pIC50 <4.50)”.
For `COc1ccc(-n2cc(C(C)NC(=O)c3cc4cc(Cl)ccc4[nH]3)cn2)cc1` (stereo not drawn) [Compound 146] the same measures were “+++ (+++ = pIC50 ≥5.50)” and “− (− = pIC50 <4.50)”.
For `CC(=O)N1CC(C(C)NC(=O)c2cc3cc(Cl)ccc3[nH]2)C1` (stereo not drawn) [Compound 147], in that order: “+++ (+++ = pIC50 ≥5.50)” and “− (− = pIC50 <4.50)”.
As for `O=C(NC1(c2ccc(Cl)cc2)CC1)c1cc2cc(Cl)ccc2[nH]1` [Compound 148], the “IDO cellular assay (SKOV3) pIC50” value at IDO (SKOV-3 cells) is given as “+++ (+++ = pIC50 ≥5.50)”. For the same compound, the “TDO cellular assay (A172) pIC50” value on TDO (A172 cells) was “+ (+ = pIC50 4.50-<5.00)”.
Turning to `COc1ccc(C2(NC(=O)c3cc4cc(Cl)ccc4[nH]3)CC2)cc1` [Compound 150], the “IDO cellular assay (SKOV3) pIC50” value on IDO (SKOV-3 cells) was “+++ (+++ = pIC50 ≥5.50)”. Also, the “TDO cellular assay (A172) pIC50” value on TDO (A172 cells) was “++ (++ = pIC50 5.00-<5.50)”.
As for `O=C(NC1(c2cnn(-c3ccccc3)c2)CC1)c1cc2cc(Cl)ccc2[nH]1` [Compound 151], the “IDO cellular assay (SKOV3) pIC50” value at IDO (SKOV-3 cells) is “+++ (+++ = pIC50 ≥5.50)”. The “TDO cellular assay (A172) pIC50” value at TDO (A172 cells) is “− (− = pIC50 <4.50)”.
For `CC(NC(=O)c1cc2cc(Cl)ccc2[nH]1)C1CN(S(C)(=O)=O)C1` (stereo not drawn) [Compound 152] the same measures were “++ (++ = pIC50 5.00-<5.50)” and “− (− = pIC50 <4.50)”.
For the compound `O=C(NC1(c2cccnc2)CC1)c1cc2cc(Cl)ccc2[nH]1` [Compound 153], the “IDO cellular assay (SKOV3) pIC50” value on IDO (SKOV-3 cells) is reported as “+++ (+++ = pIC50 ≥5.50)”. In addition, the “TDO cellular assay (A172) pIC50” value at TDO (A172 cells) was “− (− = pIC50 <4.50)”.
`CC(CN(C)S(C)(=O)=O)NC(=O)c1cc2cc(Cl)ccc2[nH]1` (stereo not drawn) [Compound 154]: on IDO (SKOV-3 cells), the “IDO cellular assay (SKOV3) pIC50” value was “+ (+ = pIC50 4.50-<5.00)”. Also, on TDO (A172 cells), the “TDO cellular assay (A172) pIC50” value was “− (− = pIC50 <4.50)”.
For `O=C(NC1(c2ccccn2)CC1)c1cc2cc(Cl)ccc2[nH]1` [Compound 155], in that order: “+++ (+++ = pIC50 ≥5.50)” and “− (− = pIC50 <4.50)”.
Turning to `O=C(NC1(c2ccccc2)CC1)c1cc2cc(C(F)(F)F)ccc2[nH]1` [Compound 156], the “IDO cellular assay (SKOV3) pIC50” value on IDO (SKOV-3 cells) was “+++ (+++ = pIC50 ≥5.50)”. For the same compound, at TDO (A172 cells), the “TDO cellular assay (A172) pIC50” value is “− (− = pIC50 <4.50)”.
For `CC(NC(=O)c1cc2cc(C(F)(F)F)ccc2[nH]1)c1cnn(C)c1` (stereo not drawn) [Compound 157], in that order: “++ (++ = pIC50 5.00-<5.50)” and “− (− = pIC50 <4.50)”.

(Values after US10167257B2, “Indole derivatives for use in medicine” (IOmet Pharma Ltd., priority 2014, dated 2019).)
